Reference: ChEMBL document CHEMBL1201862, “PubChem BioAssay data set” (2004)
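Cultured in 96-well plates, cells were exposed to test compound for 48 hours across five concentrations. GI50 is the concentration that inhibits growth by half.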 Calls of active or inactive are those of the source. No stated cut-off is given here; in the data, active = GI50 up to about 1.1 µM and inactive = higher.

Key:
Assay in all cases: NCI tumour cell line growth inhibition, 48 h
[1] = system: 786-0
[2] = system: A498
[3] = system: CCRF-CEM
[4] = system: EKVX
[5] = system: HL-60
[6] = system: HOP-62
[7] = system: HOP-92
[8] = system: IGROV-1
[9] = system: LOX IMVI
[10] = system: MOLT-4
[11] = system: Malme-3M
[12] = system: OVCAR-5
[13] = system: OVCAR-8
[14] = system: SF-295
[15] = system: SK-MEL-28
[16] = system: SK-MEL-2
[17] = system: OVCAR-4

Measured: GI50

Fc1ccc2c(c1)SC1Oc3ccccc3-c3c1c-2nn3-c1ccccc1 (stereo not drawn)
inactive: [1] > 100 µM | [2] > 100 µM | [3] > 100 µM | [4] > 100 µM | [5] > 100 µM | [6] 30.4 µM | [7] > 100 µM | [8] > 100 µM | [9] > 100 µM | [10] > 100 µM | [11] > 100 µM | [12] > 100 µM | [13] > 100 µM | [14] > 100 µM | [15] > 100 µM | [16] > 100 µM

Cc1ccc(S(=O)(=O)c2ccccc2[N+](=O)[O-])cc1
inactive: [1] > 100 µM | [2] > 100 µM | [3] > 100 µM | [4] > 100 µM | [5] 37.5 µM | [6] 92.3 µM | [8] > 100 µM | [10] 66.7 µM | [11] 85.1 µM | [17] 86.9 µM | [12] > 100 µM | [13] > 100 µM | [14] > 100 µM | [15] > 100 µM | [16] > 100 µM

COc1c(Sc2ccccc2)cc(Sc2ccccc2)c2cccnc12
inactive: [1] 20.2 µM | [2] 29.1 µM | [3] 20 µM | [4] 28.2 µM | [6] 34.9 µM | [8] 46.1 µM | [9] 17.6 µM | [10] 19.5 µM | [11] 15.1 µM | [17] 16.2 µM | [12] 40.2 µM | [13] 27.4 µM | [14] 17.3 µM | [15] 35.9 µM | [16] 17.6 µM

COc1ccc2c(c1)CC[C@@H]1C2CC[C@]2(C)C(=N\O)/C(=N/O)CC12 (stereo partly drawn)
inactive: [1] 17.5 µM | [2] 19.1 µM | [3] 9.68 µM | [4] 18.7 µM | [5] 14.2 µM | [6] 11.7 µM | [7] 16.1 µM | [8] 3.64 µM | [9] 2.43 µM | [10] 4.79 µM | [11] 17.7 µM | [12] 12.4 µM | [13] 16.5 µM | [14] 10 µM | [16] 13.1 µM

Clc1ccccc1C1=NN(c2ccccc2)C2c3cc(Br)ccc3OCC12 (stereo not drawn)
inactive: [1] > 100 µM | [2] > 100 µM | [3] > 100 µM | [4] 89.9 µM | [5] > 100 µM | [6] > 100 µM | [7] > 100 µM | [8] > 100 µM | [9] > 10 µM | [10] 96.4 µM | [11] > 100 µM | [12] > 100 µM | [13] > 100 µM | [14] > 100 µM | [15] > 100 µM | [16] > 100 µM

Cc1cc(N(CCC#N)CCC#N)ccc1/C=C(\NC(=O)/C=C/c1ccccc1)C(=O)N=[N+]=[N-]
inactive: [1] 37.5 µM | [2] > 100 µM | [3] > 100 µM | [4] > 100 µM | [5] > 100 µM | [6] 32.1 µM | [8] > 100 µM | [9] > 100 µM | [10] > 100 µM | [11] > 100 µM | [12] > 100 µM | [13] > 100 µM | [14] 17.2 µM | [15] > 100 µM | [16] > 100 µM

[O-][n+]1c(-c2ccccc2)c2nc3ccccc3nc2c2ccccc21
inactive: [1] > 100 µM | [2] > 100 µM | [3] > 100 µM | [4] > 100 µM | [6] > 100 µM | [7] > 100 µM | [8] > 100 µM | [9] > 100 µM | [10] > 100 µM | [11] > 100 µM | [17] 5 µM | [12] > 100 µM | [13] > 100 µM | [14] > 100 µM | [15] > 100 µM | [16] > 100 µM
